In assay [1] the test system is IL-17 production by CD4 T cells. As to the kind of experiment: Human Th17 assay. In kind it is cell-based. The settings on record: IL-17 production by human CD4 T cells. As for the experimental part:
The human Th17 assay tests the effect of RORγt modulatory compounds on IL-17 production by CD4 T cells under conditions which favor Th17 differentiation. Total CD4^+ T cells were isolated from the peripheral blood mononuclear cells (PBMC) of healthy donors using a CD4^+ T cell isolation kit II, following the manufacturer's instructions (Miltenyi Biotec). […] 50 μL of compound at titrated concentrations in DMSO were added into each well at final DMSO concentration at 0.2%. Cells were incubated for 1 hour, then 50 μL of Th17 cell differentiation medium was added to each well. The final concentrations of antibodies and cytokines (R&D Systems) in differentiation medium were: 3×10^6/mL anti-CD3/CD28 beads (prepared using human T cell activation/expansion kit, Miltenyi Biotec), 10 μg/mL anti-IL4, 10 μg/mL anti-IFNγ, 10 ng/mL IL1β, 10 ng/mL IL23, 50 ng/mL IL6, 3 ng/mL TGFβ and 20 U/mL IL2. Cells were cultured at 37° C. and 5% CO2 for 3 days. Supernatants were collected and the accumulated IL-17 in culture was measured by using MULTI-SPOT® Cytokine Plate following manufacture's instruction (Meso Scale Discovery). The plate was read using Sector Imager 6000, and IL-17 concentration was extrapolated from the standard curve. The IC50s were determined by GraphPad.

The target of another assay is T1, human RORγt LBD (Homo sapiens, UniProt P51449).
T1 construct: expressed in transfected cells; host or cells: HEK293T
T1 sequence (P51449 258-518): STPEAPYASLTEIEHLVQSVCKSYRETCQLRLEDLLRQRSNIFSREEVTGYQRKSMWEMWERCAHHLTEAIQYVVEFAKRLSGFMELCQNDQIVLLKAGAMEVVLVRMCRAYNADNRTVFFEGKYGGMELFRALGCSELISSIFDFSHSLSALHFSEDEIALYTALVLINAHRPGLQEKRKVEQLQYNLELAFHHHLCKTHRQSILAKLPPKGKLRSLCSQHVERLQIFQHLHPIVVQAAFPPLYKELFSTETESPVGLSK
As to the kind of experiment: RORγt (LBD) reporter assay in HEK293T cells. In kind it is cell-based. To be noted: for inhibition at 6 µM: HEK-293T, read-out: RORγt (LBD) Reporter Assay, % inhibition @ 6 μM, 6 μM compound. An excerpt:
RORγt (LBD) Reporter Assay
Cells used in the assay were co-transfected with two constructs. The first construct, pBIND-RORγt LBD, contained the wild type human RORγt LBD fused to the DNA binding domain of the GAL4 protein. The second construct, pGL4.31 (Promega Cat no. C935A), contained multiple GAL4 responsive DNA elements upstream of firefly luciferase. […] The mutant construct was called pBIND-RORγt-AF2.
The pBIND vector contains the GAL4 DNA Binding Domain (GAL4 DBD) and the renilla luciferase gene under control of the SV40 promoter. Renilla luciferase expression serves as a control for transfection efficiency and cell viability.
The reporter assay was performed by transiently transfecting HEK293T cells with 5 μg of pBIND-RORγt LBD or pBIND-RORγt LBD-AF2 and 5 μg pGL4.31 (Promega Cat no. C935A) using Fugene 6 (Invitrogen Cat no. E2691) at a 1:6 ratio of DNA:Fugene 6 in a T-75 flask in which cells were at least 80% confluent. Twenty four hours after bulk transfection, cells were plated into 96-well plates at 50,000 cells/well in phenol-red free DMEM containing 5% Lipid Reduced FCS and Pen/Strep. Six hours after plating, cells were treated with compounds for 24 hours. Media was removed and cells were lysed with 50 μL 1× Glo Lysis Buffer (Promega). Dual Glo Luciferase Reagent (50 μL/well) was then added and firefly luciferase luminescence was read on an Envision after a ten minute incubation. Finally, Stop and Glo reagent (50 μL/well) was added and renilla luciferase luminescence was read on an Envision after a ten minute incubation. […] Agonist compounds increase RORγt-driven luciferase expression, and antagonist or inverse agonist compounds decrease luciferase expression.
On the technique in general: Reporter assays use an easily measured gene product as a stand-in for the process of interest.

Assay [2] addresses T2, human RORγt ligand binding domain (RORγt LBD) (Homo sapiens, UniProt P51449).
T2 construct: His-tag (N); TurboTEV protease cleavage site (ENLYFQG) (N); made in house; host or cells: E. coli (pHIS1, modified pET vector)
T2 sequence (P51449 with tags, fused parts or gaps): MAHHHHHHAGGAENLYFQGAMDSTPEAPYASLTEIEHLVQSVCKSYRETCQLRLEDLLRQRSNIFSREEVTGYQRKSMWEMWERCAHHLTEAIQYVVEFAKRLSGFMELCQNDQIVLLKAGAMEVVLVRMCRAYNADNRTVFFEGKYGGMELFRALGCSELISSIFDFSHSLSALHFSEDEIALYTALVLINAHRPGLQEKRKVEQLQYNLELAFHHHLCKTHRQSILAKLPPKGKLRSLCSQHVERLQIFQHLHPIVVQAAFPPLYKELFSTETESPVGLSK
Put plainly: RORγt ThermoFluor assay (ligand binding affinity from protein thermal stability). As for the experimental part: This approach is applicable to a wide variety of systems, and rigorous in theoretical interpretation through quantitation of equilibrium binding constants (KD).
The shift in the melting point described as a ΔTm is proportional to the concentration and affinity of the ligand.
RORγt ThermoFluor® Assay Construct
Protein and compound solutions are dispensed into black 384-well polypropylene PCR microplates (Abgene) and overlayed with silicone oil (1 μL, Fluka, type DC 200) to prevent evaporation.
Bar-coded assay plates are robotically loaded onto a thermostatically controlled PCR-type thermal block and then heated at a typical ramp-rate of 1° C./min for all experiments. Fluorescence was measured by continuous illumination with UV light (Hamamatsu LC6) supplied via fiber optic and filtered through a band-pass filter (380-400 nm; >6 OD cutoff). Fluorescence emission of the entire 384-well plate was detected by measuring light intensity using a CCD camera (Sensys, Roper Scientific) filtered to detect 500±25 nm, resulting in simultaneous and independent readings of all 384 wells. Images were collected at each temperature, and the sum of the pixel intensity in a given area of the assay plate was recorded versus temperature. Reference wells contained RORγt without compounds, and the assay conditions were as follows: • 0.065 mg/mL RORγt • 60 μM 1,8-ANS • 100 mM Hepes, pH 7.0 • 10 mM NaCl • 2.5 mM GSH • 0.002% Tween-20
Project compounds were arranged in a pre-dosed mother plate (Greiner Bio-one) wherein compounds are serially diluted in 100% DMSO by 1:2 from a high concentration of 10 mM over 12 columns within a series (column 12 is a reference well containing DMSO, no compound). The compounds were robotically dispensed directly into assay plates (1×=[…]) using a Hummingbird capillary liquid handling instrument (Digilab). Following compound dispense, protein and dye in buffer was added to achieve the final assay volume of 3 μL, followed by 1 μL of silicone oil.

Counter-ions that a name gives are not always drawn.

One may read the IC50 as the concentration needed to halve the response being measured. High values mean weaker potency in that assay, low ones greater potency in that assay. In the case of `COc1nc2ccc(C(O)(c3cnc(C)n3C)c3cnc(C)n3C)cc2c(Cl)c1Cc1ccc(-n2cccn2)cc1` [Example 13, (3-(4-(1H-Pyrazol-1-yl)benzyl)-4-chloro-2-methoxyquinolin-6-yl)bis(1,2-dimethyl-1H-imidazol-5-yl)methanol], in assay [1], the midpoint of inhibition, the IC50, lay at 100 nM.

Usually inhibition stands for the drop in the measured response relative to a control, in per cent. For orientation: Kd means the constant that tells how readily two partners part at equilibrium. As for `COc1nc2ccc(C(O)(c3ccc(C)nc3C)c3cnnn3C)cc2c(Cl)c1Cc1ccc(F)cc1` (stereo not drawn) [Example 48a, (4-Chloro-3-(4-fluorobenzyl)-2-methoxyquinolin-6-yl)(2,6-dimethylpyridin-3-yl)(1-methyl-1H-1,2,3-triazol-5-yl)methanol], on human RORγt LBD, the IC50 is 450 nM and the inhibition at 6 µM stood at 61%. The Kd in assay [2] came to 0.85 nM.

For `CC(=O)N1CCC(C(O)(c2ccc3nc(C(F)(F)F)c(Cc4ccccc4)c(Cl)c3c2)c2cncn2C)CC1` (single isomer, unassigned) [Example 115b, 1-(4-((3-Benzyl-4-chloro-2-(trifluoromethyl)quinolin-6-yl)(hydroxy)(1-methyl-1H-imidazol-5-yl)methyl)piperidin-1-yl)ethanone•TFA], the IC50 against human RORγt LBD came to 480 nM. This compound came in with a dissociation constant Kd in assay [2] of 58 nM.

Consider `COc1nc2ccc(C(O)(c3ccc(C)nc3C)c3cnnn3C)cc2c(Cl)c1Cc1ccc(F)cc1` (single isomer, unassigned) [Example 48b, (4-Chloro-3-(4-fluorobenzyl)-2-methoxyquinolin-6-yl)(2,6-dimethylpyridin-3-yl)(1-methyl-1H-1,2,3-triazol-5-yl)methanol], for which, at human RORγt LBD, the IC50 is roughly 6000 nM and the inhibition at 6 µM is 53%. Further, the dissociation constant (Kd) in assay [2] amounted to 250 nM.

In the case of `COc1nc2ccc(C(O)(c3ccc(Cl)cc3)c3cncn3C)cc2c(Cl)c1Cc1cccc(C#N)c1` (stereo not drawn) [Example 70, 3-((4-Chloro-6-((4-chlorophenyl)(hydroxy)(1-methyl-1H-imidazol-5-yl)methyl)-2-methoxyquinolin-3-yl)methyl)benzonitrile•TFA], at human RORγt LBD, the half-maximal inhibitory concentration (IC50) came to 430 nM and the inhibition at 6 µM turned out to be 94%. This compound also showed a Kd in assay [2] of 120 nM.

On to `COc1nc2ccc(C(O)(c3oc(C)nc3C)c3cnnn3C)cc2c(Cl)c1Cc1ccc(C(F)(F)F)cc1` (single isomer, unassigned) [Example 156b, (4-chloro-2-methoxy-3-(4-(trifluoromethyl)benzyl)quinolin-6-yl)(2,4-dimethyloxazol-5-yl)(1-methyl-1H-1,2,3-triazol-5-yl)methanol], for which, on human RORγt LBD, it took 87 nM to reach half-maximal inhibition (IC50) and the inhibition at 6 µM was found to be 98%. The same compound displayed a Kd in assay [2] of 75 nM.

Consider `COc1nc2ccc(C(N)(c3ccc(C(F)(F)F)nc3)c3cncn3C)cc2c(Cl)c1Cc1ccccc1` (single isomer, unassigned) [Example 120c, (3-Benzyl-4-chloro-2-methoxyquinolin-6-yl)(1-methyl-1H-imidazol-5-yl)(6-(trifluoromethyl)pyridin-3-yl)methanamine•TFA], for which the IC50 against human RORγt LBD is roughly 6000 nM. In assay [2], the Kd stood at 1100 nM.

In the case of `Cn1cncc1C(O)(c1ccc(C(F)(F)F)nc1)c1ccc2nc(-n3cccn3)c(Cc3ccccc3)c(C#N)c2c1` (single isomer, unassigned) [Example 114b, 3-Benzyl-6-(hydroxy(1-methyl-1H-imidazol-5-yl)(6-(trifluoromethyl)pyridin-3-yl)methyl)-2-(1H-pyrazol-1-yl)quinoline-4-carbonitrile•TFA], the IC50 against human RORγt LBD was determined as 1400 nM. Moreover, the dissociation constant Kd in assay [2] stood at 120 nM.

With `COc1nc2ccc(C(O)(c3ccc(C(F)(F)F)cc3)c3cccnc3)cc2c(Cl)c1Cc1ccc(-n2cccn2)cc1` (single isomer, unassigned) [Example 162b], on human RORγt LBD, the IC50 stood at 1100 nM and the inhibition at 6 µM is 81%. This compound gave a Kd in assay [2] of 16000 nM.

At human RORγt LBD, `CC(=O)N1CCC(C(O)(c2ccc3nc(C(F)(F)F)c(Cc4ccccc4)c(Cl)c3c2)c2cncn2C)CC1` (single isomer, unassigned) [Example 115c, 1-(4-((3-Benzyl-4-chloro-2-(trifluoromethyl)quinolin-6-yl)(hydroxy)(1-methyl-1H-imidazol-5-yl)methyl)piperidin-1-yl)ethanone•TFA] had an IC50 of 110 nM. Further, in assay [2], binding was put at a Kd of 17 nM.

`COc1nc2ccc(C(O)(c3ccc(C)nc3C)c3cnnn3C)cc2c(C#N)c1Cc1ccc(F)cc1` (stereo not drawn) [Example 49a, 6-((2,6-Dimethylpyridin-3-yl)(hydroxy)(1-methyl-1H-1,2,3-triazol-5-yl)methyl)-3-(4-fluorobenzyl)-2-methoxyquinoline-4-carbonitrile]: on human RORγt LBD, the IC50 was 52 nM and the inhibition at 6 µM worked out at 84%. In addition, in assay [2], the affinity, expressed as Kd, was 1.7 nM.

Turning to `COc1nc2ccc(C(O)(c3ccc(Cl)cc3)c3cncn3C)cc2c(Cl)c1Cc1ccc(C(F)(F)F)nc1` (single isomer, unassigned) [Example 39b], at human RORγt LBD, it took 1200 nM to reach half-maximal inhibition (IC50) and the inhibition at 6 µM turned out to be 86%. The compound further came in with a Kd in assay [2] of 1100 nM.

Compound `COc1nc2ccc(C(O)(c3oc(C)nc3C)c3cnnn3C)cc2c(Cl)c1Cc1ccc(C(F)(F)F)cc1` (single isomer, unassigned) [Example 156c, (4-chloro-2-methoxy-3-(4-(trifluoromethyl)benzyl)quinolin-6-yl)(2,4-dimethyloxazol-5-yl)(1-methyl-1H-1,2,3-triazol-5-yl)methanol] gave an IC50 against human RORγt LBD of 1.9 nM. Besides, the “RORγt (LBD) Reporter Assay, % inhibition @ 6 μM” value on human RORγt LBD (6 μM compound, 6 µM) turned out to be 99%. Also, in assay [2], binding was characterised by a dissociation constant (Kd) of 0.59 nM.

The values above are taken from US9284308B2, “Methylene linked quinolinyl modulators of RORγt” (Janssen Pharmaceutica NV, priority 2013, dated 2016).
